Data from patent EP0353668A2, “Process for the preparation of N,N-bis(alkoxyalkyl) diamides of pyridine-2,4-dicarboxylic acid” (HOECHST AKTIENGESELLSCHAFT, priority 1988, dated 1990).

Experiment: in vivo
Parameters: species or system Wistarratten
Experimental: Es wurde festgestellt, daß die Verbindungen der Formel I außergewöhnlich gute enterale Resorbierbarkeiten aufweisen. Die Resorbierbarkeit wurde an Wistarratten untersucht, denen N,N′-Bis-(2-methoxy ethyl)pyridin-2,4-dicarbonsäureamid intragastral verabreicht wurde. Der Serumspiegel sank in den ersten Stunden nach Verabreichung der Substanz ab und ereichte nach ca. 5 Stunden ein nur noch leicht abfallendes Platteau.
Weibliche Wistarratten von ca. 150 g Körpergewicht erhalten 50 mg/kg N,N′-Bis(2-methoxyethyl)pyridin-2,4-dicarbonsäurediamid mittels Schlundsonde intragastral verabreicht. Es werden nach 0; 0,25; 0,5; 1; 3; 4; 5; 6; 8 und 14 Stunden jeweils 4 Ratten narkotisiert und über die Vena Cava entblutet. Das Blut wird sofort zentrifugiert und N,N′-Bis(2-methoxyethyl)pyridin-2,4-dicarbonsäurediamid mit Ether aus dem Serum extrahiert. Nach Verdampfen des Ethers wird der Rückstand in […] Fliessmittel aufgenommen. Das Fliessmittel besteht aus 0,05 M Phosphorsäure und Acetonitril (4:1). Von dieser Probe werden 50 µl in eine HPLC-Säule injiziert. Die Detektion erfolgt bei UV 200 nm und einer Retentionszeit von 2,2 min. Die Ergebnisse sind in der Tabelle 1 und der Figur 1 dokumentiert. Tabelle 1

For COCCNC(=O)c1ccnc(C(=O)NCCOC)c1 [N,N′-Bis(2-methoxyethyl)pyridin-2,4-dicarbonsäurediamid], the “Zeit bis der Serumspiegel ein nur noch leicht abfallendes Platteau erreichte” value was “ca. 5 Stunden”, the “enterale Resorbierbarkeit” value was “gute Resorbierbarkeit” and the concentration at 0.25 h (rat, po, 50 mg/kg) was 38700 ng/mL. For the same molecule, the concentration at 0.5 h (rat, po, 50 mg/kg) was 32400 ng/mL, the concentration at 1 h (rat, po, 50 mg/kg) was 15600 ng/mL and the concentration at 3 h (rat, po, 50 mg/kg) was 700 ng/mL. For the same molecule, the concentration at 4 h (rat, po, 50 mg/kg) was 3300 ng/mL, the concentration at 5 h (rat, po, 50 mg/kg) was 500 ng/mL and the concentration at 6 h (rat, po, 50 mg/kg) was 600 ng/mL. The concentration at 8 h (rat, po, 50 mg/kg) was 500 ng/mL and the concentration at 14 h (rat, po, 50 mg/kg) was 300 ng/mL.
